Reference: patent publication US5430058A, “Pharmaceutical compositions comprising hydroxamate derivatives for iron removal” (Yeda Research and Development Co. Ltd., priority 1993, dated 1995)
Converted amounts (≈) assume the structure as drawn. “Also recorded” adds a separate entry of the source. Where two headings read alike, the source gives them in different places.

Tests used:
[1] = system: Plasmodium falciparum strain D6; assay: Antimalarial activity in various strains, D6; type: cell-based
Experimental: (§1) f. Parasite cultures. The P. falciparum strains used in the experiments: ItG2G1 (Brazil, provided by Dr. L. H. Miller), D6 (W. African, provided by Dr. A. J. M. Oduola) FCR-3 (Gambian, provided by Dr. J. B. Jensen) and W2 (Indochina, provided by Dr. A. J. M. Oduola), were grown in culture flasks of human erythrocytes by a modified version of Trager and Jensen's method as described by Silfen et al. ((1988) Biochem. Pharmacol. 37: 4269-4276)).
(§2) g. Bioassay of iron carrier antimalarial activity. […] After the indicated time of incubation with drug and either previous to or after washing 3 times with 100 volumes growth medium, the cells were supplemented with 6 μCi of either [^3 H]-hypoxanthine or [^3 H]-Ileu (Amersham, England) per well and parasite growth assessed after 24-48 hours by harvesting the labelled cells onto glass-fiber filters (Tamar, Inc. Jerusalem) and counting of the radioactivity.
(§3) It is clear that the efficacy of the agents is primarily correlated with the respective octanol/saline partition coefficient or the hydrophobicity of the amino acid side chain, and only secondarily with their iron binding efficiencies, which are relatively high for all the agents. […] The antimalarial activity of the various chelators was assessed over a 24 hr period of exposure on infected cells (trophozoite stage of P. falciparum) as described in method (g). […]

[2] = system: synchronized cultures of rings (P. falciparum); assay: Time dependence of parasite growth inhibition, rings; type: cell-based, Plasmodium falciparum; conditions: for Inhibitory effect, in words: rings; for inhibition at 10 µg/mL: Plasmodium falciparum, read-out: Inhibition of parasite growth
Experimental: (§4) g. Bioassay of iron carrier antimalarial activity. The antimalarial activity was assayed by adding the compounds from concentrated stock solutions (in DMSO) to microcultures (24 wells, Costar) containing infected red cells (2.5% hematocrit and 2% parasitemia). The cultures were usually synchronized (4-7 hrs. windows) by incubation in 300 mM Ala, 10 mM TRIS-Cl in conjunction with gelatin flotation and used either at the trophozoite (1-2% parasitemia) or at the ring stage (4-6% parasitemia) of the erythrocyctic cycle. After the indicated time of incubation with drug and either previous to or after washing 3 times with 100 volumes growth medium, the cells were supplemented with 6 μCi of either [^3 H]-hypoxanthine or [^3 H]-Ileu (Amersham, England) per well and parasite growth assessed after 24-48 hours by harvesting the labelled cells onto glass-fiber filters (Tamar, Inc. Jerusalem) and counting of the radioactivity.
(§5) To study the growth stage of parasites most sensitive to inhibition, the time dependence of the inhibitory effect of SF1-ileu (10 μg/ml) vis a vis that of DFO (80 μg/ml) was assessed both on synchronized cultures of rings and of cultures of trophozoites. The cells were exposed to the […], the cells were washed from extracellular drug and assessed for [^3 H]-hypoxanthine incorporation after the last sample completed the 4 hours incubation period with drug.

[3] = system: Plasmodium falciparum strain ItG2G1; assay: Antimalarial activity in various strains, ItG2G1; type: cell-based
Experimental: as §1, §2, §3

[4] = system: synchronized cultures of trophozoites (P. falciparum); assay: Time dependence of parasite growth inhibition, trophozoites; type: cell-based, Plasmodium falciparum; conditions: for Inhibitory effect, in words: trophozoites; for inhibition at 10 µg/mL: Plasmodium falciparum, read-out: Inhibition of parasite growth
Experimental: as §4, §5

[5] = system: mouse NIH 3T3 fibroblasts; assay: Proliferation of mammalian cells, NIH 3T3; type: cell-based; conditions: for Proliferation (nucleic acid synthesis): 24 hours exposure, [3H]-hypoxanthine; for Proliferation (protein synthesis): [3H]ileu incorporation, not shown
Experimental: (§6) The possibility that the reversed siderophores might affect mammalian cells in culture was assessed in conditions identical to those used for parasites in cultures. […] Nucleic acid synthesis was measured in cultures of mouse NIH 3T3 fibroblasts and human HT29 colonic carcinoma cells in the presence of either SF1-ileu (open circles), desferrioxamine (DFO) (solid triangle) in DMSO or DMSO alone (Control) (<1% final) (open triangles) at same concentrations. Cultures at confluence were exposed to chelators for 24 hours; the first 3 hours without radiolabel and 21 hours with 6 μCi/ml of [^3 H]-hypoxanthine. Extracellular hypoxanthine was removed by several washes with PBS and the cells were treated with 5% TCA for 15 minutes at 5° C. and solubilized with hot 2.5% SDS. Samples were taken for counting of radioactivity and measurement of protein (BCA, Pierce). Data are given as dpm/μg protein and SD (duplicate samples).

[6] = system: human HT29 colonic carcinoma cells; assay: Proliferation of mammalian cells, HT29; type: cell-based; conditions: for Proliferation (nucleic acid synthesis): 24 hours exposure, [3H]-hypoxanthine; for Proliferation (protein synthesis): [3H]ileu incorporation, not shown
Experimental: as §6

[7] = amino acid side chain, Tanford/Segret's scale as given by Eisenberg 1984; cited from earlier work
[8] = system: mammalian cells in culture; assay: Growth/toxicity in mammalian cells in culture, general statement; type: cell-based
Experimental: as §6

[9] = Extraction of iron from aqueous FeCl3/citrate into chloroform; type: physicochemical; conditions: 0.3 mM in chloroform vs 0.3 mM FeCl3, 0.3 mM citric acid, 40 mM TRIS, pH 6.9, overnight
Experimental: d. Extractions were performed by overnight equilibration of 0.3 mM chloroform solutions of reversed siderophore with aqueous solutions of 0.3 mM FeCl3, 0.3 mM citric acid, 40 mM TRIS, pH 6.9. The amount of iron taken up into the organic phase was determined by the absorption of the iron+complex at 430 nm. No iron uptake into chloroform solutions devoid of RSF was observed by ion chromatography.

[10] = system: normal and infected red cells; assay: Distribution of 59Fe counts after uptake (80,000g lysate fractionation); type: cell-based, human; conditions: 59Fe complex, lysates 80,000g×20 min
Experimental: k. Uptake of radioactive carrier-Fe complexes. DFO and the different SF derivatives were pre-complexed with iron by addition of concentrated stock solutions of 20 mg/ml carriers to ^59 FeCl3 (Amersham, England) in 0.5 ml of 150 mM NaCl, 10 mM Hepes at 3-5 molar excess of carrier for 1 hour at room temperature. To begin the flux, normal or parasitized red cells that had been washed 3 times in saline buffer and resuspended in the same buffer supplemented with 5% bovine serum albumin (BSA), 2.5 mM citrate, 2 mg/ml glucose were added to radioactive ^59 Fe-complexes at a final suspension of 20% hematocrit. After incubation at 37° C., 75 μl suspension was removed in duplicate aliquots for each time point, placed in plastic 15 ml test tube (Starstedt) and centrifuged 1 minute at 2,500 g. The supernatant was removed and the pellet immediately placed on ice. After all sampling was completed the pellets were washed twice in 15 ml of ice cold buffer containing 50 mM EDTA and lysed in distilled water. Radioactivity (Gamma emission, 700-1300 Kev) was counted and the cell number for each sample determined from hemoglobin absorption of the lysate at 410 nm.
Due to the fact that RSF's have markedly greater lipophilicity than DFO, they were expected to faster penetrate and therefore more effectively chelate intracellular iron after short exposure times. […]

[11] = 0.5 hr incubation, SF1-ileu 10 μg/ml

## CC(=O)N(O)CCCCCNC(=O)CCC(=O)N(O)CCCCCNC(=O)CCC(=O)N(O)CCCCCN [DFO, desferrioxamine B, reference compound]
[1]; strain D6 (chloroquine-sensitive), 48 hour exposure, trophozoites, read-out: IC50
  IC50: 40 ± 9 µg/mL (≈ 71.3 µM)
[2]; DFO 80 μg/ml, 6 hrs exposure
  Inhibitory effect, in words: inhibitory effects were dismal
[2]; DFO 80 μg/ml, 20 hrs exposure
  Inhibitory effect, in words: substantial inhibition
[3]; strain ItG2G1 (chloroquine-sensitive), 48 hour exposure, trophozoites, read-out: IC50
  IC50: 35 ± 3 µg/mL (≈ 62.4 µM)
[4]; DFO 80 μg/ml, 6 hrs exposure
  Inhibitory effect, in words: inhibitory effects were dismal
[4]; DFO 80 μg/ml, 20 hrs exposure
  Inhibitory effect, in words: substantial inhibition
[5]
  Proliferation (nucleic acid synthesis): neither SF1-ileu nor DFO affected the proliferation
  Proliferation (protein synthesis): neither SF1-ileu nor DFO affected the proliferation
[6]
  Proliferation (nucleic acid synthesis): neither SF1-ileu nor DFO affected the proliferation
  Proliferation (protein synthesis): neither SF1-ileu nor DFO affected the proliferation

## CC[C@H](C)[C@H](NC(=O)CCOCC(CC)(COCCC(=O)N[C@H](C(=O)N(C)O)[C@@H](C)CC)COCCC(=O)N[C@H](C(=O)N(C)O)[C@@H](C)CC)C(=O)N(C)O [SF1-ileu]
[7]
  Hydrophobicity: 5.0
[8]
  Growth of / toxicity to mammalian cells in culture: does not affect the growth of various types of mammalian cells in culture; also recorded: not toxic to mammalian cells in culture
[1]; D6, 48 h
  IC50: 6 ± 2 µg/mL (≈ 7.72 µM)
[2]; 2 h
  inhibition at 10 µg/mL: ~70%
[2]; 20 h
  inhibition at 10 µg/mL: > 95%
[2]; [11]
  Inhibitory effect, in words: major inhibitory effects
[9]
  Extraction efficiency: 52
[3]; 48 h
  IC50: 5 ± 2 µg/mL (≈ 6.44 µM)
[4]; 2 h
  inhibition at 10 µg/mL: ~90%
[4]; 20 h
  inhibition at 10 µg/mL: > 95%
[4]; [11]
  Inhibitory effect, in words: major inhibitory effects
[10]
  Total counts found in the cytosol fraction: More than 90%
[5]
  Proliferation (nucleic acid synthesis): neither SF1-ileu nor DFO affected the proliferation
  Proliferation (protein synthesis): neither SF1-ileu nor DFO affected the proliferation
[6]
  Proliferation (nucleic acid synthesis): neither SF1-ileu nor DFO affected the proliferation
  Proliferation (protein synthesis): neither SF1-ileu nor DFO affected the proliferation
